PubChem BioAssay AID1996
≈ marks a conversion by molar mass, not a printed value.

settings: buffer; pH 7.4; 200.0 µM

SMILES | solubility kinetic [µg/mL]
O=C(C1CC1)N1CCN(c2ccc([N+](=O)[O-])cc2)CC1 | > 41.3
NC(=S)c1c(Cl)cc(C(F)(F)F)cc1Cl | 40.6 (≈ 148 µM)
Cc1cc(Cl)cc(C)c1OCCCCCn1ccnc1 | 30.7 (≈ 105 µM)
CCCOc1ccc(/C=C/c2c([N+](=O)[O-])c(=O)n(C)c(=O)n2C)cc1 | < 0.2
Cc1cccc(C(=O)NC(=O)Nc2c(C)cc(C)nc2C)c1 | > 44.6
CC(=O)c1ccccc1NC(=O)COC(=O)c1cc[n+]([O-])cc1 | > 47.1
COc1ccc(CC(=O)OCN2C(=O)c3ccccc3C2=O)cc1OC | > 53.3
COc1ccc(NS(=O)(=O)c2cn(C)c(=O)n(C)c2=O)cc1 | > 48.8
CCOC(=O)c1cn(CC#N)c2cc(F)c(F)cc2c1=O | > 43.8
N/C(Cc1nc(-c2ccc(F)cc2)cs1)=N\O | 36.4 (≈ 145 µM)
C(CNC1C2CC3CC(C2)CC1C3)CN1CCOCC1.Cl (stereo not drawn) | > 52.7
CN(c1ccccc1)S(=O)(=O)c1cccc(NC(=O)c2ccc(Cl)c([N+](=O)[O-])c2)c1 | 1.8 (≈ 4.04 µM)
CC(C(=O)OCC(=O)c1ccccc1)N1C(=O)C2C3CCC(C3)C2C1=O (stereo not drawn) | > 53.3
COc1cc2[nH]c(=S)nc(NCc3cccnc3)c2cc1OC | 12.2 (≈ 37.2 µM)
O=C(COC(=O)CNC(=O)c1ccc(Cl)cc1Cl)NC1CC1 | > 51.8
Cn1c(=O)cc(Nc2ccc(Cl)cc2)[nH]c1=O | 8.7 (≈ 34.6 µM)
O=C(COC(=O)c1cc([N+](=O)[O-])ccc1Cl)NC1CCCC1 | > 49
O=c1cc(O)c2sc(Nc3cccc(C(F)(F)F)c3)nc2[nH]1 | 36.9 (≈ 113 µM)
Cc1cc(-c2ccc(S(=O)(=O)N3CCCCC3)s2)on1 | 2.6 (≈ 8.32 µM)
O=C(Nc1ccccn1)c1cc2ccccc2cc1O | 0.5 (≈ 1.89 µM)
COc1ccc(CC(=O)N(Cc2ccccc2)C(C)C)cc1 | 40.7 (≈ 137 µM)
O=C(CCNC(=O)c1ccccc1)Nc1ccc(Cl)c(S(=O)(=O)N2CCCCC2)c1 | 29.8 (≈ 66.2 µM)
Cc1noc(C)c1COC(=O)c1ccc(N(C)C)cc1 | 1.6 (≈ 5.83 µM)
O=C(C[n+]1ccc(C(=O)c2ccccc2)cc1)Nc1ccccc1OC(F)F.[Cl-] | 59.4

SMILES | solubility kinetic [µg/mL]
CCOC(=O)CCCc1ccc(/C(C)=N/NC(N)=S)cc1 | > 46.1
O=C(O)c1cccc(NC2=C(N3CCOCC3)C(=O)c3ccccc3C2=O)c1 | > 56.8
O=C(NCc1ccccc1)C1CCN(C(=O)Cc2ccccc2)CC1 | > 50.5
COc1ccc(CCNC(=O)c2ccc(OCc3c(C)noc3C)c(OC)c2)cc1 | 2.3 (≈ 5.6 µM)
O=C(CSc1ncccn1)N1CCCc2ccccc21 | > 42.8
O=C(COC(=O)c1c(Cl)cccc1Cl)NCC1CCCO1 (stereo not drawn) | > 49.8
O=C1CCc2cc(S(=O)(=O)Nc3ccccc3Cl)ccc2N1 | > 50.5
c1ccc2cc(Cn3ccnc3)ccc2c1 | 28.5 (≈ 137 µM)
CCN1C(C#N)=C(C#N)N=C(C)CC1(C)C | 29.8 (≈ 138 µM)
CN(C1(C)CCS(=O)(=O)C1)S(=O)(=O)c1cccc([N+](=O)[O-])c1 (stereo not drawn) | > 52.3
O=C(c1cc(Br)c[nH]1)N1CCSCC1 | 29.6 (≈ 108 µM)
CC(NC(=S)Nc1cccc(C(F)(F)F)c1)C(C)(C)C (stereo not drawn) | 4.6 (≈ 15.1 µM)
COc1ccc(C(CNS(=O)(=O)c2ccc(NC(C)=O)c(OC)c2)N2CCCCC2)cc1.Cl (stereo not drawn) | > 74.7
Cc1cccc(CN2C3=NCCCN3c3ccccc32)c1.Cl | > 47.1
NC(=O)CNC(=O)c1cccc(Cl)c1 | > 31.9
O/N=C/c1ccc(-c2ccccc2OC(F)(F)F)o1 | 1.7 (≈ 6.27 µM)
CC(=O)c1ccc(NCCC(=O)c2ccccc2)cc1 | < 0.6
CC(C)CC(C)NC(=O)c1ccc(C(F)(F)F)cc1 (stereo not drawn) | 4.9 (≈ 17.9 µM)
CC(NC(=O)COc1cccnc1[N+](=O)[O-])c1ccc(F)cc1 (stereo not drawn) | > 47.9
Cn1c(/C(C#N)=C(\O)c2cccc(F)c2)nc2ccccc21 | 0.3 (≈ 1.02 µM)
CN(C)C(=O)c1cc(C(=O)c2c(F)cccc2F)c[nH]1 | > 41.7
Cc1cc(C)cc(OCC(=O)OCC(=O)Nc2cc(S(=O)(=O)N3CCOCC3)ccc2Cl)c1 | 41.6 (≈ 83.7 µM)
Cc1cc(SCc2ccc([N+](=O)[O-])cc2)nc(=O)[nH]1 | 24.2 (≈ 87.3 µM)
CN(C)S(=O)(=O)c1cccc(C(=O)NC2CCSc3ccccc32)c1 (stereo not drawn) | 4.8 (≈ 12.7 µM)

SMILES | solubility kinetic [µg/mL]
O=C(NC(=S)NC1C2CC3CC(C2)CC1C3)c1ccccc1 (stereo not drawn) | < 0.3
CC1CC(C)CN(C(=O)Cn2cc(C=O)c3ccccc32)C1 (stereo not drawn) | > 44.8
COc1cc(OC)c(OC)cc1CN1CCSCC1 | 32.3 (≈ 114 µM)
Cc1ccc(NC(=O)NC(=O)COc2c(F)c(F)cc(F)c2F)c(C)c1 | 20.5 (≈ 55.4 µM)
CN1CCN(c2ccc(C(F)(F)F)cc2N)CC1 | > 38.9
N#Cc1ccc(CSc2nc(N)cc(=O)[nH]2)cc1 | > 38.7
O=C(Cc1ccccc1)N/N=C/c1ccc[nH]1 | > 34.1
CC(C)n1cc(C(N)=S)c(=O)n(Cc2ccccc2)c1=O | 9.1 (≈ 30 µM)
O=C(Cc1ccccc1)Nc1nc(-c2ccc(F)c(F)c2)cs1 | 0.4 (≈ 1.21 µM)
Cc1ccc(C(=O)O)cc1N=Nc1c(O)[nH]c(=O)[nH]c1=O | > 43.5
CCc1ccc2nc(/N=C(\N)NC(=O)c3ccccc3)nc(C)c2c1 | < 0.1
O=C(Nc1ccc(Br)cc1)NC1CCCCCCC1 | < 0.3
O=C(COC(=O)C1CC1)NCCc1ccccc1 | > 37.1
Cc1cc(C)n(C)c(=O)c1C#N | > 24.3
O=C(CN1C(=O)NC2(CCc3ccccc32)C1=O)Nc1cccc(Cl)c1 (stereo not drawn) | 54.2 (≈ 147 µM)
COc1cccc(C(=O)NCCCNC(=O)c2cccc(OC)c2)c1 | > 51.4
Cc1nc2cc(NCc3cccs3)ccc2n1C | 31.9 (≈ 124 µM)
Cc1nc(NC(=O)c2cnccn2)ccc1Br | 7.8 (≈ 26.6 µM)
COc1ccccc1OC(C)C(=O)Nc1ccc2c(c1)OCCO2 (stereo not drawn) | > 49.4
Cn1cccc1C(=O)OCC(=O)N1CC(=O)Nc2ccccc21 | 45.1 (≈ 144 µM)
C#CCOc1ccc(C2C(C#N)=C(N)Oc3cc(O)ccc32)cc1 (stereo not drawn) | 34.5 (≈ 108 µM)
NC(=O)COC(=O)c1ccc(-c2ccccc2)cc1 | 19.1 (≈ 74.8 µM)
COc1ccccc1CCC(=O)Nc1ncc(C)s1 | 2.5 (≈ 9.05 µM)
COc1cccc(C(=O)NOCc2ccc(C)cc2)c1OC | > 45.2

SMILES | solubility kinetic [µg/mL]
OCCOCCN1CCN(C(=S)Nc2ccccc2)CC1 | > 46.4
Cc1cc(NC(=O)CS(=O)(=O)c2ccc(Cl)cc2)no1 | 14.4 (≈ 45.8 µM)
COC(=O)/C(C#N)=C/c1c(-c2ccccc2)nc2n1CCS2 | 7.5 (≈ 24.1 µM)
O=C1[C@@H]2[C@H]3CC[C@H](C3)[C@@H]2C(=O)N1O | 27 (≈ 149 µM)
CC(C)CC(=O)Nc1ncc([N+](=O)[O-])s1 | > 34.4
O=C(O)c1cccc(S(=O)(=O)Nc2ccc(Oc3ccccc3)cc2)c1 | > 55.4
COc1ccc(Cl)cc1C(=O)O/N=C(\N)c1ccccn1 | > 45.9
CCCNC(=O)CN1C(=O)c2ccccc2Sc2ncccc21 | > 49.1
COc1ccc(OC)c(NC(=O)Nc2ccc3c(c2)OCO3)c1 | 2.3 (≈ 7.27 µM)
CC(=O)Cc1nsc(NC(=O)c2ccccc2Cl)n1 | > 44.4
COC(=O)c1ccc(CO/N=C/c2cccc([N+](=O)[O-])c2)cc1 | < 0.3
CNc1nccc(-c2ccc(Cl)cc2)c1C#N | 1.5 (≈ 6.16 µM)
CCN(C(=O)COC(=O)c1ccc2c(c1)OCO2)c1ccc(F)cc1 | 10.4 (≈ 30.1 µM)
Cc1cc(=O)n2c(n1)SCOC2 | > 27.6
COc1cccc(C(CNC(=O)c2ccc(Cl)c(S(=O)(=O)N3CCCC3)c2)N(C)C)c1 (stereo not drawn) | > 69.9
COc1ccc(-c2noc(CN(Cc3nccn3C)C(C)C)n2)cc1 | 45.6 (≈ 134 µM)
O=C(Nc1ccc(N2CCOCC2)c(F)c1)c1cccs1 | 17 (≈ 55.5 µM)
CCOC(=O)C1=C(C)NC(=S)NC1c1ccco1 (stereo not drawn) | 39.9 (≈ 150 µM)
NS(=O)(=O)c1ccc(CCNC(=O)c2ccc3ccccc3n2)cc1 | 10.6 (≈ 29.8 µM)
COc1ccc(C(CNC(=O)c2ccc(S(=O)(=O)N3CC(C)CC(C)C3)cc2)N(C)C)cc1 (stereo not drawn) | > 71
NC1=C(c2ccccc2)C(=O)NC1=O | > 28.2
COC(=O)c1c(C)nc(C)c(C(=O)OC)c1-c1cccs1 | > 45.8
O=C(O)c1ccc(Nc2ccc(Cl)c(Cl)c2)c([N+](=O)[O-])c1 | > 49.1
Cc1cc(C(=O)NC(Cc2c[nH]c3ccccc23)C(=O)O)c(C)o1 (stereo not drawn) | 41.6 (≈ 127 µM)

SMILES | solubility kinetic [µg/mL]
CN1C(=S)SC(/[N+]([O-])=C\c2ccccc2F)C1(C)C (stereo not drawn) | > 44.8
Cc1cc(/C=C2\SC(=O)NC2=O)c(C)n1-c1ccc(N(C)C)cc1 | < 0.2
N#Cc1ccccc1OCC(=O)OCC(=O)NC1CCS(=O)(=O)C1 (stereo not drawn) | > 52.9
O=c1[nH]c(-c2ccc(O)cc2)nc2scc(-c3cccs3)c12 | 0.5 (≈ 1.53 µM)
Oc1ccc(-c2cn3ccccc3n2)cc1O | 24 (≈ 106 µM)
O=C(Cn1c(=O)oc2cccnc21)Nc1ccc(C(F)(F)F)cc1 | 8.9 (≈ 26.4 µM)
Cc1ccc(NC(=O)c2ccc3c(c2)NC(=O)CS3)nc1 | 5.3 (≈ 17.7 µM)
CC1CCCN(CC(=O)c2ccc(Cl)c(Cl)c2)C1 (stereo not drawn) | 26 (≈ 90.8 µM)
CC1(C)CC(=O)c2c(Cc3ccccc3)noc2C1 | 33.4 (≈ 131 µM)
Nc1c(N(CCO)C(=O)C2CCCC2)c(=O)[nH]c(=O)n1Cc1ccccc1 | > 55.9
O=S(=O)([O-])CCC[n+]1ccc(Oc2ccccc2)cc1 | 21 (≈ 71.6 µM)
COc1ccc(C(=O)NC(CCSC)C(=O)NC2CC2)cc1 (stereo not drawn) | > 48.4
Cc1ccc(F)c(N=Cc2c(O)c3ccccc3oc2=O)c1 | 1.8 (≈ 6.05 µM)
CC(NC(=O)C(C)(C)C)C(c1cccs1)N1CCOCC1 (stereo not drawn) | > 46.6
CCOC(=O)c1sc(NC(=O)c2ccc(OC(C)=O)cc2)nc1C | 0.7 (≈ 2.01 µM)
Cc1cc(NC(=O)c2sc3ccccc3c2O)no1 | > 41.1
O=C1CCCN=C(Nc2ccc(F)c(Cl)c2)S1 | 3.1 (≈ 11.4 µM)
Cn1c(SCC(=O)N2CCCC2=O)nc2ccccc21 | > 43.4
CCN(CC(=O)NC(=O)NC1CCCCC1)Cc1ccccc1 | 47 (≈ 148 µM)
CCNc1ccc(S(=O)(=O)NCCN(C)C)cc1[N+](=O)[O-] | 42.4 (≈ 134 µM)
Cc1ccnc(SCC(=O)Nc2cc(C)on2)n1 | > 39.6
Cc1occc1C(=O)NCc1nc(-c2ccccc2)no1 | > 42.5
